Test results: ChEMBL document CHEMBL1157952, “Neocimicigenosides A and B, cycloartane glycosides from the rhizomes of Cimicifuga racemosa and their effects on CRF-stimulated ACTH secretion from AtT-20 cells” (2006)

Test system: AtT20
Assay: Induction of corticotropin releasing factor-stimulated ACTH secretion in mouse AtT20 cells
Assay type: functional

SMILES | Activity
CC(=O)O[C@H]1[C@H]2C[C@@H](C)[C@H]3[C@](O2)(OC1(C)C)[C@H](O)[C@@]1(C)[C@@H]2CC[C@H]4C(C)(C)[C@@H](O[C@@H]5OC[C@H](O)[C@H](O)[C@H]5O)CC[C@@]45C[C@@]25CC[C@]31C [NEOCIMICIGENOSIDE A] | 7 ng/mL
CC(=O)O[C@H]1[C@H]2C[C@@H](C)[C@H]3[C@](O2)(OC1(C)C)[C@H](O)[C@@]1(C)[C@@H]2CC[C@H]4C(C)(C)[C@@H](O[C@@H]5OC[C@@H](O)[C@H](O)[C@H]5O)CC[C@@]45C[C@@]25CC[C@]31C [NEOCIMICIGENOSIDE B] | 7.2 ng/mL
